# According to US20220259202A1, “1-(4-(AMINOMETHYL)BENZYL)-2-BUTYL-2H-PYRAZOLO[3,4-C]QUINOLIN-4-AMINE DERIVATIVES AND RELATED COMPOUNDS AS TOLL-LIKE RECEPTOR (TLR) 7/8 AGONISTS, AS WELL AS ANTIBODY DRUG CONJUGATES THEREOF FOR USE IN CANCER THERAPY AND DIAGNOSIS” (SUTRO BIOPHARMA, INC., priority 2019, published 2022):
# Experiments:
# Assay type in all cases: cell-based
# human TLR7 = target: T1, human TLR7 (Homo sapiens, UniProt Q9NYK1); assay: HEK293 SEAP reporter assay, other TLRs (Biological Example 3); settings: 16 hrs, * = Estimated
# T1 construct: host or cells: HEK293
# T1 sequence (Q9NYK1 27-1049): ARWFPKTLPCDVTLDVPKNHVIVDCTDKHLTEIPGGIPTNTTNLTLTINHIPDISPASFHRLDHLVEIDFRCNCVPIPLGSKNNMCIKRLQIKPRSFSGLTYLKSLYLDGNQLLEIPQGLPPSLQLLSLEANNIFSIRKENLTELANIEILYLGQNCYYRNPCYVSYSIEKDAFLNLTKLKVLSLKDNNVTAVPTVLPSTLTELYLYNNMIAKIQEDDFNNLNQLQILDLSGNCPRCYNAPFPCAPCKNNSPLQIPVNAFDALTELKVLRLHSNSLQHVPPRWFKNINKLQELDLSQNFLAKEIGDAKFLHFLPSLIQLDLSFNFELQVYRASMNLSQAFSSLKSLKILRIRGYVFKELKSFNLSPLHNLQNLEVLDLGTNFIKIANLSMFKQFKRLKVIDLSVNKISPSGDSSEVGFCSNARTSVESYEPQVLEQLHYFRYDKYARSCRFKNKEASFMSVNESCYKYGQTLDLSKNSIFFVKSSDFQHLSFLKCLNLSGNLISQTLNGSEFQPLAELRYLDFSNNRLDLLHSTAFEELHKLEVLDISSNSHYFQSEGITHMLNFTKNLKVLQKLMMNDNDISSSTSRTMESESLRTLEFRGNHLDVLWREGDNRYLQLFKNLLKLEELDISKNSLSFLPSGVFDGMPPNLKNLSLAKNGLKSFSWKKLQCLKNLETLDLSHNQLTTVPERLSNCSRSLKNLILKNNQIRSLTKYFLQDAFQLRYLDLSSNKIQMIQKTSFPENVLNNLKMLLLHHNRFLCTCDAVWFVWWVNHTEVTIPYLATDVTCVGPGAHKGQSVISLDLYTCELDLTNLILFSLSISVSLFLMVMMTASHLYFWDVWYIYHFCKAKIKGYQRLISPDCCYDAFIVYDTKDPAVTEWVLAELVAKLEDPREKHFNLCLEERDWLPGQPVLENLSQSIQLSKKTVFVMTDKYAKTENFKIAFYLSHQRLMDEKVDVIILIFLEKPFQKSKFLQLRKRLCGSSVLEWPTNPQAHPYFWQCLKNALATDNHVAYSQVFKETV
# Source text: In this example, the activity of the Compound 1 to stimulate different human and mouse TLR pathways was investigated on HEK293 cells transfected with inducible SEAP (secreted embryonic alkaline phosphatase) reporter genes and also expressing different human TLRs (TLR2, TLR3, TLR4, TLR5, TLR7, TLR8, TLRS) or mouse TLRs (TLR2, TLR3, TLR4, TLR5, TLR7, TLR8, TLR13).
# HEK293 reporter cell lines were purchased from Invivogen and cell lines were maintained in manufacture recommended culture medium with required supplemental antibiotics. On the day of assay, the cells were harvested with Accutase and counted by the Vi-CELL Cell Viability Analyzers. Cells were re-suspended in HEK blue detection medium and a total of 10000 cells were seeded in each well of a 384-well flat bottom plate. […] Assay plates were cultured at 37° C. in a CO2 incubator for 16 hrs. HEK-Blue™ Detection medium changes to a purple/blue color in the presence of secreted SEAP, which can be detected by spectrophotometry at 620-655 nm. Data was fitted with non-linear regression analysis, using a log(inhibitor) vs. response-variable slope, 3-parameter fit with GraphPad Prism.
# human PBMCs = assay: Compound-induced cytokine release (ELISA); settings: IL-6, MCP-1, IL1Ra (FIG. 4A-4C); 24 hrs
# Method: (§1) This example evaluates the ability of Compound 1 to induce cytokine release in human PBMCs, cyno PBMCs and mouse splenocytes. Compound A and resiquimod, above, were used as controls in the assays.
# (§2) Human and cyno PBMCs, mouse splenocytes were isolated as described in previous example. On the day of the assay, 300k of PBMC or splenocytes in 50 μL of culture medium were seeded in 96-well cell culture plates. 50 μL of the test articles (formulated at 2× of starting concentration) were then added into the well. The cell mixtures were co-cultured in the presence of test articles and 10 μg/mL LPS-RS for 24 hrs (human PBMCs) or 48 hr (cyno PBMCs and mouse splenocytes). Released cytokines in cell culture medium were measured by ELISA.
# mouse splenocytes = assay: Compound-induced cytokine release (ELISA); settings: IL-6, MCP-1, TNFα and IP-10 (FIG. 6A-6D); 48 hr
# Method: as §1, §2
smiles,measurement,setting,value
"CCCCn1nc2c(N)nc3ccccc3c2c1Cc1ccc(CN)cc1 [Compound 1, 1-(4-(aminomethyl)benzyl)-2-butyl-2H-pyrazolo[3,4-c]quinolin-4-amine]",EC50,human TLR7,61.4 nM
same,cytokine release from human PBMCs,human PBMCs,stimulated strong
same,cytokine release from mouse splenocytes,mouse splenocytes,stimulated strong
